Test results: ChEMBL document CHEMBL4004781, “Synthesis, biological evaluation, docking study and ulcerogenicity profiling of some novel quinoline-2-carboxamides as dual COXs/LOX inhibitors endowed with anti-inflammatory activity” (Eur J Med Chem, 2017)

What was measured:
[1] = target: T1, Prostaglandin G/H synthase 1 (Ovis aries, UniProt P05979); assay: Inhibition of ovine COX1 using arachidonic acid as substrate assessed as decrease in PGF2 production preincubated for 15 mins followed by substrate addition measured after 2 mins by enzyme immunoassay
T1 sequence (P05979 whole entry): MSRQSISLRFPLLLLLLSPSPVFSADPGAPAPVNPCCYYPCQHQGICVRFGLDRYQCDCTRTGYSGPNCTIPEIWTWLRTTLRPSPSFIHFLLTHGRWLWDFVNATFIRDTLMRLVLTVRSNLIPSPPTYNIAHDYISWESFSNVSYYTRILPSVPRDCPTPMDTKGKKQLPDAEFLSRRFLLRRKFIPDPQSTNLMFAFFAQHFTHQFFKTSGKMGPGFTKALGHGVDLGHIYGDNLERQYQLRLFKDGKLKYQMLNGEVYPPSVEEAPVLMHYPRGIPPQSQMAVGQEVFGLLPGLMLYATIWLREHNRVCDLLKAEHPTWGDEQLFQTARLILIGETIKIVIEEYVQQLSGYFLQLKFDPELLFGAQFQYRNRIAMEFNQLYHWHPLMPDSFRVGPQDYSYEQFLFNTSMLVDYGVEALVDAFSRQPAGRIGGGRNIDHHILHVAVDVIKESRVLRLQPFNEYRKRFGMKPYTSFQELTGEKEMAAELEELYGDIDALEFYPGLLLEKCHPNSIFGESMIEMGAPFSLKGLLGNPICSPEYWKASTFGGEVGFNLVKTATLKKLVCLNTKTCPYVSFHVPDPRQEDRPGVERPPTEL

[2] = target: T2, Prostaglandin G/H synthase 2 (Homo sapiens, UniProt P35354); assay: Inhibition of recombinant human COX2 using arachidonic acid as substrate assessed as decrease in PGF2 production preincubated for 15 mins followed by substrate addition measured after 2 mins by enzyme immunoassay
T2 sequence (P35354 whole entry): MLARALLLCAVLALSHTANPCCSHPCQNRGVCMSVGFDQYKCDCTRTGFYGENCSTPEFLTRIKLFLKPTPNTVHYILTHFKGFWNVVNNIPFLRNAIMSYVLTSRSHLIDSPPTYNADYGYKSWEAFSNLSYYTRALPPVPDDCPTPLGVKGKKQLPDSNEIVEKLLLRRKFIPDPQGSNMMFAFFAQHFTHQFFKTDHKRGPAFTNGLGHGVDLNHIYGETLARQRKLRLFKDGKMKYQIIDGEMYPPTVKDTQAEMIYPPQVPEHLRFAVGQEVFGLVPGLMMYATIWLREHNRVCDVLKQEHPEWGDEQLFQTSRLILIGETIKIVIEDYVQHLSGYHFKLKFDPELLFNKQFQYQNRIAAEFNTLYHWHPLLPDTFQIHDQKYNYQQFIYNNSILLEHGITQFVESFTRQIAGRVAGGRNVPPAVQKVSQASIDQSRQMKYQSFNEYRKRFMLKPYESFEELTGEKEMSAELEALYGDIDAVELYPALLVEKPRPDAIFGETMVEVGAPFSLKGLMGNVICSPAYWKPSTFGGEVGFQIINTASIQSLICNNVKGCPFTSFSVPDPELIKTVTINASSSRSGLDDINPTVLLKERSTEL

[3] = Selectivity ratio of IC50 for ovine COX1 to IC50 for recombinant human COX2
[4] = Inhibition of soybean 15-LOX assessed as decrease in leukotriene formation by enzyme immunoassay; parameters: species or system Glycine max
[5] = test system: Rattus norvegicus; assay: Antiinflammatory activity in albino rat assessed as inhibition of carrageenan-induced paw edema at 28 umol/kg, ip administered 1 hr post carrageenan challenge measured at 1 hr post compound dosing relative to control; type: functional
[6] = test system: Rattus norvegicus; assay: Antiinflammatory activity in albino rat assessed as inhibition of carrageenan-induced paw edema at 28 umol/kg, ip administered 1 hr post carrageenan challenge measured at 3 hrs post compound dosing relative to control; type: functional
[7] = test system: Rattus norvegicus; assay: Antiinflammatory activity in albino rat assessed as inhibition of carrageenan-induced paw edema at 28 umol/kg, ip administered 1 hr post carrageenan challenge measured at 5 hrs post compound dosing relative to control; type: functional
[8] = test system: Rattus norvegicus; assay: Ulcerogenic effect in albino rat assessed as ulcer index at 50 umol/kg, po qd administered for 3 days measured 1 hr post last dose; type: toxicity, organism-based; conditions: in vivo
[9] = test system: Rattus norvegicus; assay: Ulcerogenic effect in albino rat assessed as lymphocytic infiltration at 50 umol/kg, po qd administered for 3 days measured 1 hr post last dose by hematoxylin/eosin staining-based light microscopic method; type: toxicity, organism-based; conditions: in vivo
[10] = test system: Rattus norvegicus; assay: Ulcerogenic effect in albino rat assessed as effect on architecture of gastric mucosa at 50 umol/kg, po qd administered for 3 days measured 1 hr post last dose by hematoxylin/eosin staining-based light microscopic method; type: toxicity, organism-based; conditions: in vivo
[11] = test system: Rattus norvegicus; assay: Ulcerogenic effect in albino rat assessed as effect on architecture of gastric mucosal surface at 50 umol/kg, po qd administered for 3 days measured 1 hr post last dose by scanning electron microscopic method; type: toxicity, organism-based; conditions: in vivo
[12] = test system: Rattus norvegicus; assay: Ulcerogenic effect in albino rat assessed as loss of demarcation between surface mucus cells at 50 umol/kg, po qd administered for 3 days measured 1 hr post last dose by scanning electron microscopic method; type: toxicity, organism-based; conditions: in vivo
[13] = Inhibition of soybean 15-LOX; parameters: species or system Glycine max
[14] = test system: Rattus norvegicus; assay: Ulcerogenic effect in albino rat assessed as congestion of blood vessels at 50 umol/kg, po qd administered for 3 days measured 1 hr post last dose by hematoxylin/eosin staining-based light microscopic method; type: toxicity, organism-based; conditions: in vivo
[15] = test system: Rattus norvegicus; assay: Ulcerogenic effect in albino rat assessed as maceration of gastric mucosa at 50 umol/kg, po qd administered for 3 days measured 1 hr post last dose by hematoxylin/eosin staining-based light microscopic method; type: toxicity, organism-based; conditions: in vivo
[16] = test system: Rattus norvegicus; assay: Ulcerogenic effect in albino rat assessed as submucosal edema at 50 umol/kg, po qd administered for 3 days measured 1 hr post last dose by hematoxylin/eosin staining-based light microscopic method; type: toxicity, organism-based; conditions: in vivo
[17] = test system: Rattus norvegicus; assay: Ulcerogenic effect in albino rat assessed as exfoliation of superficial epithelial cells at 50 umol/kg, po qd administered for 3 days measured 1 hr post last dose by hematoxylin/eosin staining-based light microscopic method; type: toxicity, organism-based; conditions: in vivo
[18] = test system: Rattus norvegicus; assay: Ulcerogenic effect in albino rat assessed as induction of necrosis in gastric mucosal cells at 50 umol/kg, po qd administered for 3 days measured 1 hr post last dose by hematoxylin/eosin staining-based light microscopic method; type: toxicity, organism-based; conditions: in vivo
[19] = test system: Rattus norvegicus; assay: Ulcerogenic effect in albino rat assessed as complete shedding of surface mucous cells leaving underlying gastric pit walls and openings with honeycomb shape at 50 umol/kg, po qd administered for 3 days measured 1 hr post last dose by scanning electron microscopic method; type: toxicity, organism-based; conditions: in vivo

| Structure (SMILES) | IC50 [1] [µM] | IC50 [2] [µM] | Ratio IC50 [3] | IC50 [4] [µM] | inhibition in vivo at 28 µmol/kg [5] [%] | inhibition in vivo at 28 µmol/kg [6] [%] | inhibition in vivo at 28 µmol/kg [7] [%] | further results |
| --- | --- | --- | --- | --- | --- | --- | --- | --- |
| Cc1c(C(=O)N2CCN(c3ccccc3)CC2)nc2ccc(Cl)cc2c1O | 8.6 | 1.13 | 7.61 | 5.91 | 49.5 | 61 | 65 | UI [8]: 2.5; Activity [9]: Toxic; Activity [10]: Non-Toxic; Activity [11]: Non-Toxic; Activity [12]: Toxic |
| Cc1c(C(=O)N2CCCCC2)nc2ccc(Cl)cc2c1O | 12.4 | 3.14 | 3.94 | 10.4 | 30.1 | 35.4 | 36.8 | – |
| Cc1c(C(=O)NCCc2ccc(N3CCCCC3)cc2)nc2ccc(Cl)cc2c1O | 10.4 | 2.11 | 4.92 | 7.32 | 39.8 | 46.9 | 48.2 | – |
| Cc1c(C(=O)NC2CCCN(Cc3ccccc3)C2)nc2ccc(Cl)cc2c1O (stereo unspecified) | 13.1 | 3.54 | 3.7 | – | 31.4 | 35.9 | 37.8 | – |
| Cc1c(C(=O)N(C)c2ccccc2)nc2ccc(Cl)cc2c1O | 8.3 | 1.74 | 4.77 | – | 38.9 | 45.6 | 47 | – |
| CCOC(=O)C(Cc1ccccc1)NC(=O)c1nc2ccc(Cl)cc2c(O)c1C (stereo unspecified) | 9.6 | 1.91 | 5.02 | 7.14 | 40.5 | 47.3 | 49 | – |
| Cc1c(C(=O)NC(CO)Cc2ccccc2)nc2ccc(Cl)cc2c1O (stereo unspecified) | 11.4 | 2.78 | 4.1 | – | 34.2 | 39.5 | 41.3 | – |
| Cc1c(C(=O)NCCc2ccccc2)nc2ccc(Cl)cc2c1O | 11.4 | 2.54 | 4.48 | 9.87 | 35.8 | 40.9 | 43.4 | – |
| Cc1c(C(=O)NC2CCCCC2)nc2ccc(Cl)cc2c1O | 7.8 | 1.41 | 5.53 | 6.54 | 43.5 | 50.1 | 52 | – |
| CC(C)(C)Nc1c(-c2cc3ccccc3nc2Cl)nc2sccn12 | – | – | – | – | – | – | – | IC50 [13]: 11.5 µM |
| Cc1c(C(=O)NCCc2ccc(N3CCCC3C)cc2)nc2ccc(Cl)cc2c1O (stereo unspecified) | 9.8 | 1.91 | 5.1 | – | 41 | 48 | 49.7 | – |
| Cc1c(C(=O)NCc2nc3ccccc3[nH]2)nc2ccc(Cl)cc2c1O | 7.9 | 1.21 | 6.52 | 6.18 | 45.2 | 50.1 | 59.4 | UI [8]: 2.66; Activity [14]: Toxic; Activity [10]: Non-Toxic; Activity [11]: Non-Toxic; Activity [12]: Toxic |
| Cc1c(C(=O)NCCc2ccc(N3CCCC3)cc2)nc2ccc(Cl)cc2c1O | 7.5 | 1.69 | 4.43 | 6.74 | 41 | 48 | 49.9 | – |
| Cc1ccc(-c2cc(C(F)(F)F)nn2-c2ccc(S(N)(=O)=O)cc2)cc1 [CELECOXIB] | – | – | – | – | 57.1 | 68.4 | 71.2 | – |
| Cc1ccc(Cl)c(Nc2ccccc2C(=O)O)c1Cl [MECLOFENAMATE SODIUM] | – | – | – | 5.64 | – | – | – | – |
| COc1ccc2c(c1)c(CC(=O)O)c(C)n2C(=O)c1ccc(Cl)cc1 [INDOMETHACIN] | – | – | – | – | – | – | – | UI [8]: 17.23; Activity [15]: Toxic; Activity [14]: Toxic; Activity [9]: Toxic; Activity [16]: Toxic; Activity [17]: Toxic; Activity [18]: Toxic; Activity [19]: Toxic |
| Cc1c(C(=O)NCCc2ccc(N(C)C)cc2)nc2ccc(Cl)cc2c1O | 8.3 | 1.67 | 4.97 | – | 39.1 | 46.9 | 48.6 | – |
| Cc1c(C(=O)N2CCNCC2)nc2ccc(Cl)cc2c1O | 10.7 | 2.81 | 3.8 | 8.43 | 31.1 | 37.5 | 38 | – |
